# From ChEMBL document CHEMBL3885861, “Open TG-GATES”
# Species: Rattus norvegicus
# Assay: Open TG-GATES - Regimen: Single
# Assay type: toxicity, organism-based, Sprague-Dawley
# Parameters: regimen Single, gender Male, age 6 weeks
# Details: in vivo, po, route gavage; for TP / gamma-GTP / ALP / AST / BUN / CRE / Ca / Cl / DBIL / GLC / IP / K / LDH / Na / PL / RALB / TBIL / TC / TG: tissue Plasma; for APTT / Bas / Eos / Ht / MCH / MCHC / MCV / Mono / PT / Plat / RBC / Ret / WBC / Fbg: tissue Blood; for KIDNEY_L / KIDNEY_R / KIDNEY_TOTAL: tissue Kidney; for LIVER: tissue Liver
# [1] = 200 mg/kg, 3 h, dose level Middle
# [2] = 200 mg/kg, 6 h, dose level Middle
# [3] = 200 mg/kg, 9 h, dose level Middle
# [4] = 200 mg/kg, 24 h, dose level Middle
# [5] = 600 mg/kg, 3 h, dose level High
# [6] = 600 mg/kg, 6 h, dose level High
# [7] = 600 mg/kg, 9 h, dose level High
# [8] = 600 mg/kg, 24 h, dose level High
smiles,measurement,setting,value
CC(=O)Nc1nnc(S(N)(=O)=O)s1 [ACETAZOLAMIDE],TP,"60 mg/kg, 24 h, dose level Low",5.5 g/dL
same,gamma-GTP,"60 mg/kg, 24 h, dose level Low",1.2 IU/L
same,TERMINAL_BW,[1],208.6 g
same,APTT,[1],21.4 s
same,Bas,[1],0%
same,Eos,[1],1%
same,Ht,[1],42%
same,MCH,[1],21 pg
same,MCHC,[1],31.4%
same,MCV,[1],66.7 fL
same,Mono,[1],2.2%
same,PT,[1],16.8 s
same,Plat,[1],124.3 x10_4/uL
same,RBC,[1],629.8 x10_4/ul
same,Ret,[1],8.5%
same,WBC,[1],67.2 x10_2/uL
same,KIDNEY_L,[1],0.9 g
same,KIDNEY_R,[1],0.9 g
same,KIDNEY_TOTAL,[1],1.8 g
same,LIVER,[1],9.2 g
same,ALP,[1],1675.4 IU/L
same,AST,[1],71.2 IU/L
same,BUN,[1],12.2 mg/dL
same,CRE,[1],0.2 mg/dL
same,Ca,[1],11.1 mg/dL
same,Cl,[1],111.2 meq/L
same,DBIL,[1],0 mg/dL
same,GLC,[1],186.4 mg/dL
same,IP,[1],10.2 mg/dL
same,K,[1],3.7 meq/L
same,LDH,[1],191.6 IU/L
same,Na,[1],140.8 meq/L
same,PL,[1],143 mg/dL
same,RALB,[1],3.4 g/dL
same,TBIL,[1],0.012 mg/dL
same,TC,[1],80.4 mg/dL
same,TP,[1],6 g/dL
same,gamma-GTP,[1],1.2 IU/L
same,TERMINAL_BW,[2],207.7 g
same,APTT,[2],22.7 s
same,Bas,[2],0%
same,Eos,[2],1%
same,Fbg,[2],356 mg/dL
same,Ht,[2],42%
same,MCH,[2],21.2 pg
same,MCHC,[2],31.2%
same,MCV,[2],68 fL
same,Mono,[2],2.8%
same,PT,[2],16.9 s
same,Plat,[2],108.6 x10_4/uL
same,RBC,[2],617.6 x10_4/ul
same,Ret,[2],8.8%
same,WBC,[2],85 x10_2/uL
same,KIDNEY_L,[2],1 g
same,KIDNEY_R,[2],1 g
same,KIDNEY_TOTAL,[2],2 g
same,LIVER,[2],8.8 g
same,ALP,[2],1625.8 IU/L
same,AST,[2],71.2 IU/L
same,BUN,[2],11.6 mg/dL
same,CRE,[2],0.2 mg/dL
same,Ca,[2],11.1 mg/dL
same,Cl,[2],113.6 meq/L
same,DBIL,[2],0 mg/dL
same,GLC,[2],186.8 mg/dL
same,IP,[2],9.7 mg/dL
same,K,[2],4 meq/L
same,LDH,[2],180.8 IU/L
same,Na,[2],140 meq/L
same,PL,[2],135.8 mg/dL
same,RALB,[2],3.4 g/dL
same,TBIL,[2],0.024 mg/dL
same,TC,[2],84.2 mg/dL
same,TG,[2],21.4 mg/dL
same,TP,[2],6 g/dL
same,gamma-GTP,[2],1.6 IU/L
same,TERMINAL_BW,[3],200 g
same,APTT,[3],22.9 s
same,Bas,[3],0%
same,Eos,[3],0.8%
same,Fbg,[3],349.4 mg/dL
same,Ht,[3],43.2%
same,MCH,[3],20.8 pg
same,MCHC,[3],31%
same,MCV,[3],67.3 fL
same,Mono,[3],1.8%
same,PT,[3],16.3 s
same,Plat,[3],127.1 x10_4/uL
same,RBC,[3],644 x10_4/ul
same,Ret,[3],8.8%
same,WBC,[3],68.1 x10_2/uL
same,KIDNEY_L,[3],0.9 g
same,KIDNEY_R,[3],1 g
same,KIDNEY_TOTAL,[3],1.9 g
same,LIVER,[3],7.8 g
same,ALP,[3],1777.2 IU/L
same,AST,[3],61.6 IU/L
same,BUN,[3],13.2 mg/dL
same,CRE,[3],0.2 mg/dL
same,Ca,[3],11 mg/dL
same,Cl,[3],114.4 meq/L
same,DBIL,[3],0 mg/dL
same,GLC,[3],175 mg/dL
same,IP,[3],9.7 mg/dL
same,K,[3],3.8 meq/L
same,LDH,[3],182.6 IU/L
same,Na,[3],139 meq/L
same,PL,[3],122.4 mg/dL
same,RALB,[3],3.5 g/dL
same,TBIL,[3],0.026 mg/dL
same,TC,[3],72.4 mg/dL
same,TG,[3],13.8 mg/dL
same,TP,[3],6.1 g/dL
same,gamma-GTP,[3],1.4 IU/L
same,TERMINAL_BW,[4],205.9 g
same,APTT,[4],21.2 s
same,Bas,[4],0%
same,Eos,[4],1%
same,Fbg,[4],349 mg/dL
same,Ht,[4],40.8%
same,MCH,[4],20.9 pg
same,MCV,[4],62.9 fL
same,Mono,[4],2%
same,PT,[4],16.8 s
same,Plat,[4],132.1 x10_4/uL
same,RBC,[4],649.2 x10_4/ul
same,Ret,[4],8.1%
same,WBC,[4],101.2 x10_2/uL
same,KIDNEY_L,[4],1 g
same,KIDNEY_R,[4],1 g
same,KIDNEY_TOTAL,[4],1.9 g
same,LIVER,[4],8.5 g
same,ALP,[4],1929.2 IU/L
same,AST,[4],53.6 IU/L
same,BUN,[4],21.6 mg/dL
same,CRE,[4],0.2 mg/dL
same,Ca,[4],10.8 mg/dL
same,Cl,[4],114.4 meq/L
same,DBIL,[4],0 mg/dL
same,GLC,[4],189.6 mg/dL
same,IP,[4],7.7 mg/dL
same,K,[4],3.6 meq/L
same,LDH,[4],222.4 IU/L
same,Na,[4],142.2 meq/L
same,PL,[4],136.2 mg/dL
same,RALB,[4],3.2 g/dL
same,TBIL,[4],0.016 mg/dL
same,TC,[4],86.4 mg/dL
same,TG,[4],44.6 mg/dL
same,TP,[4],5.7 g/dL
same,gamma-GTP,[4],1.4 IU/L
same,TERMINAL_BW,[5],215.3 g
same,APTT,[5],22.2 s
same,Bas,[5],0%
same,Eos,[5],1.2%
same,Fbg,[5],336.8 mg/dL
same,Ht,[5],42.8%
same,MCH,[5],21.1 pg
same,MCHC,[5],31.1%
same,MCV,[5],67.9 fL
same,Mono,[5],2%
same,Plat,[5],114.9 x10_4/uL
same,RBC,[5],630.4 x10_4/ul
same,Ret,[5],8.1%
same,WBC,[5],60.8 x10_2/uL
same,KIDNEY_L,[5],0.9 g
same,KIDNEY_R,[5],1 g
same,KIDNEY_TOTAL,[5],1.9 g
same,LIVER,[5],9.6 g
same,ALP,[5],1769.8 IU/L
same,AST,[5],76 IU/L
same,BUN,[5],12.2 mg/dL
same,CRE,[5],0.2 mg/dL
same,Ca,[5],11.1 mg/dL
same,Cl,[5],112 meq/L
same,DBIL,[5],0 mg/dL
same,GLC,[5],188.6 mg/dL
same,IP,[5],10.5 mg/dL
same,K,[5],4 meq/L
same,LDH,[5],209.8 IU/L
same,Na,[5],140.2 meq/L
same,PL,[5],140.4 mg/dL
same,RALB,[5],3.3 g/dL
same,TBIL,[5],0.008 mg/dL
same,TG,[5],24.8 mg/dL
same,TP,[5],5.9 g/dL
same,gamma-GTP,[5],1.2 IU/L
same,TERMINAL_BW,[6],204.7 g
same,APTT,[6],23.6 s
same,Bas,[6],0%
same,Eos,[6],1.4%
same,Fbg,[6],340.8 mg/dL
same,Ht,[6],42.8%
same,MCH,[6],21.2 pg
same,MCHC,[6],31.1%
same,MCV,[6],68 fL
same,Mono,[6],2.4%
same,PT,[6],16.8 s
same,Plat,[6],120.2 x10_4/uL
same,RBC,[6],628.2 x10_4/ul
same,Ret,[6],8.5%
same,WBC,[6],85.2 x10_2/uL
same,KIDNEY_L,[6],0.9 g
same,KIDNEY_R,[6],1 g
same,KIDNEY_TOTAL,[6],1.9 g
same,LIVER,[6],8.3 g
same,ALP,[6],1569.2 IU/L
same,AST,[6],69 IU/L
same,BUN,[6],10.6 mg/dL
same,CRE,[6],0.2 mg/dL
same,Ca,[6],11.1 mg/dL
same,Cl,[6],113 meq/L
same,DBIL,[6],0 mg/dL
same,GLC,[6],185.2 mg/dL
same,IP,[6],10.1 mg/dL
same,K,[6],3.8 meq/L
same,LDH,[6],205.4 IU/L
same,Na,[6],138.4 meq/L
same,PL,[6],149.8 mg/dL
same,RALB,[6],3.4 g/dL
same,TBIL,[6],0.016 mg/dL
same,TC,[6],90.4 mg/dL
same,TG,[6],23 mg/dL
same,TP,[6],6 g/dL
same,gamma-GTP,[6],1.2 IU/L
same,TERMINAL_BW,[7],201.6 g
same,APTT,[7],24 s
same,Bas,[7],0%
same,Eos,[7],0.8%
same,Fbg,[7],344.6 mg/dL
same,Ht,[7],43%
same,MCHC,[7],30.9%
same,MCV,[7],66.6 fL
same,Mono,[7],2.2%
same,PT,[7],16 s
same,Plat,[7],123.6 x10_4/uL
same,RBC,[7],645.4 x10_4/ul
same,Ret,[7],8.8%
same,WBC,[7],51.5 x10_2/uL
same,KIDNEY_L,[7],0.9 g
same,KIDNEY_R,[7],0.9 g
same,KIDNEY_TOTAL,[7],1.9 g
same,LIVER,[7],7.7 g
same,ALP,[7],1753.6 IU/L
same,AST,[7],59 IU/L
same,BUN,[7],13.4 mg/dL
same,CRE,[7],0.2 mg/dL
same,Ca,[7],11 mg/dL
same,Cl,[7],114.2 meq/L
same,DBIL,[7],0 mg/dL
same,GLC,[7],172.6 mg/dL
same,IP,[7],10 mg/dL
same,K,[7],3.8 meq/L
same,LDH,[7],176.4 IU/L
same,Na,[7],138.6 meq/L
same,PL,[7],127.8 mg/dL
same,RALB,[7],3.4 g/dL
same,TBIL,[7],0.02 mg/dL
same,TC,[7],85 mg/dL
same,TG,[7],11.4 mg/dL
same,TP,[7],6.1 g/dL
same,gamma-GTP,[7],1.2 IU/L
same,TERMINAL_BW,[8],199.5 g
same,APTT,[8],22.2 s
same,Bas,[8],0%
same,Eos,[8],1%
same,Fbg,[8],359.2 mg/dL
same,Ht,[8],41.1%
same,MCH,[8],20.3 pg
same,MCHC,[8],32.8%
same,MCV,[8],61.9 fL
same,Mono,[8],2.2%
same,PT,[8],16.9 s
same,Plat,[8],112.5 x10_4/uL
same,RBC,[8],663.8 x10_4/ul
same,Ret,[8],8%
same,WBC,[8],74.5 x10_2/uL
same,KIDNEY_L,[8],0.9 g
same,KIDNEY_R,[8],0.9 g
same,KIDNEY_TOTAL,[8],1.9 g
same,LIVER,[8],7.9 g
same,ALP,[8],1549.4 IU/L
same,AST,[8],49.6 IU/L
same,BUN,[8],18.8 mg/dL
same,CRE,[8],0.2 mg/dL
same,Ca,[8],10.7 mg/dL
same,Cl,[8],116.8 meq/L
same,DBIL,[8],0 mg/dL
same,IP,[8],8.2 mg/dL
same,K,[8],3.8 meq/L
same,LDH,[8],205.2 IU/L
same,Na,[8],140.6 meq/L
same,PL,[8],137.4 mg/dL
same,RALB,[8],3.5 g/dL
same,TBIL,[8],0.016 mg/dL
same,TC,[8],89.6 mg/dL
same,TG,[8],26.8 mg/dL
same,TP,[8],6 g/dL
same,gamma-GTP,[8],1.2 IU/L
